According to PMC11124822, “Discovery and Anticancer Screening of Novel Oxindole-Based Derivative Bearing Pyridyl Group as Potent and Selective Dual FLT3/CDK2 Kinase Inhibitor” (Pharmaceuticals, 2024):

Assays:
CDK2 = target: T1, CDK2 (Homo sapiens, UniProt P24941); experiment: Z'-LYTE kinase assay; assay type: biochemical
T1 construct: purchased Invitrogen/Life Technologies
Method: (§1) The Z’-LYTE® technology, which relies on FRET (Fluorescence Resonance Energy Transfer) from Invitrogen/Life Technologies, was employed for this evaluation for all kinases except VEGFR-2. The VEGFR-2 kinase assay was conducted in a 96-well streptavidin-coated plate using a recombinant human VEGFR-2/KDR ELISA kit, following the manufacturer’s instructions. […] Statistical significance was assessed using one-way analysis of variance (ANOVA), followed by the Dunnett test; data are represented as means ± SD.

FLT3 = target: T2, FLT3 (Homo sapiens, UniProt P36888); experiment: Z'-LYTE kinase assay; assay type: biochemical
T2 construct: purchased Invitrogen/Life Technologies
T2 sequence (P36888 27-993): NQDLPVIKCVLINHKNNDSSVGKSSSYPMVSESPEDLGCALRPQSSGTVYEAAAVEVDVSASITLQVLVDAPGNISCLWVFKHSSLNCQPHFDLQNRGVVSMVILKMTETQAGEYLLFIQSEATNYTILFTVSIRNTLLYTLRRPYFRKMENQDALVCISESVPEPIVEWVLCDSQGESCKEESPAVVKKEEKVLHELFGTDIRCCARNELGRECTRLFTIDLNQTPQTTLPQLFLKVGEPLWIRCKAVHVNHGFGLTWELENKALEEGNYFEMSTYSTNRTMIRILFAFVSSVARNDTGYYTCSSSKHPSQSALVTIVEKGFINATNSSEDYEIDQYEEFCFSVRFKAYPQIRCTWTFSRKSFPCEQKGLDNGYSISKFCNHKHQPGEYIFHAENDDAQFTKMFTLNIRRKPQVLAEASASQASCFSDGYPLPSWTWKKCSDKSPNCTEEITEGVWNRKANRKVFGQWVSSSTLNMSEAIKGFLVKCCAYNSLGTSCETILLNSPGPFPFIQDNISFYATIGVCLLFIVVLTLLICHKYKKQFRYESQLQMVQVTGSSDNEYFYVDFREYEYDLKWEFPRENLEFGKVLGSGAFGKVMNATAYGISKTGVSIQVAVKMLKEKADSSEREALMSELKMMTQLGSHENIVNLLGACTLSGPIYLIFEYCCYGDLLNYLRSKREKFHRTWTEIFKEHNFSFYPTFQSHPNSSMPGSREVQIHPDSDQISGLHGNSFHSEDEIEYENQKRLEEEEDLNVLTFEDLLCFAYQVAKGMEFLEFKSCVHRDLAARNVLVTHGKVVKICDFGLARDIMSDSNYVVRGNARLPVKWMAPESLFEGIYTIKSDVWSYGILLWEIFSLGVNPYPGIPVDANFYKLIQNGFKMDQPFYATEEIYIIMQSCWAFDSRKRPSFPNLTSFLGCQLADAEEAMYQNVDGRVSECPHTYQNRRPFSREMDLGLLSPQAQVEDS
Method: as §1

[1] = three separate experiments ± SD

With `O=C1Nc2cc(Cl)ccc2C1=Cc1ccc(OCc2cccnc2)cc1` (mixture of isomers) [Compound 5l, (E/Z)-6-Chloro-3-[4-(pyridin-3-ylmethoxy)benzylidene] indolin-2-one] the inhibition at 10 µM (CDK2; 10 µM, CDK2) was 87.7%, the IC50 (CDK2; [1]) was 8.17 ± 0.32 nM and the inhibition at 10 µM (FLT3; 10 µM, FLT3) was 92.6%. For the same compound, the IC50 (FLT3; [1]) was 36.2 ± 1.07 nM.
